Among the data in patent US7528148B2, “Pyrazolo[3,4-B]pyridine compounds, and their use as phosphodiesterase inhibitors” (Glaxo Group Limited, priority 2002, dated 2009) are ED50 values, retold here.

The test system of data set [1] is LPS-induced pulmonary neutrophilia in rats. Kind of data set: In Vivo Assay 1: LPS-induced pulmonary neutrophilia in rats, orally administered PDE4 inhibitors. Conditions: po, rat, LPS aerosol 30 min after dosing, BAL 4 hours post LPS, read-out: neutrophilia-inhibition ED50. An excerpt: In Vivo Assay 1. LPS-induced Pulmonary Neutrophilia in Rats: Effect of Orally Administered PDE4 Inhibitors
The purpose of this neutrophilia model is to study the potentially anti-inflammatory effects in vivo of orally administered PDE4 inhibitors on neutrophilia induced by inhalation of aerosolized lipopolysaccharide (LPS), modelling the neutrophil inflammatory component(s) of COPD. See the literature section below for scientific background.
Male Lewis rats (Charles River, Raleigh, N.C., USA) weighing approximately 300-400 grams are pretreated with either (a) test compound suspended in 0.5% methylcellulose (obtainable from Sigma-Aldrich, St Louis, Mo., USA) in water or (b) vehicle only, delivered orally in a dose volume of 10 ml/kg. Generally, dose response curves are generated using the following doses of PDE4 inhibitors: 10.0, 2.0, 0.4, 0.08 and 0.016 mg/kg. Thirty minutes following pretreatment, the rats are exposed to aerosolized LPS (Serotype E. Coli 026:B6 prepared by trichloroacetic acid extraction, obtainable from Sigma-Aldrich, St Louis, Mo., USA), generated from a nebulizer containing a 100 μg/ml LPS solution. Rats are exposed to the LPS aerosol at a rate of 4 L/min for 20 minutes. LPS exposure is carried out in a closed chamber with internal dimensions of 45 cm length×24 cm width×20 cm height. The nebulizer and exposure chamber are contained in a certified fume hood. At 4 hours-post LPS exposure the rats are euthanized by overdose with pentobarbital at 90 mg/kg, administered intraperitoneally. Bronchoalveolar lavage (BAL) is performed through a 14 gauge blunt needle into the exposed trachea. Five, 5 ml washes are performed to collect a total of 25 ml of BAL fluid. Total cell counts and leukocyte differentials are performed on BAL fluid in order to calculate neutrophil influx into the lung. Percent neutrophil inhibition at each dose (cf. vehicle) is calculated and a variable slope, sigmoidal dose-response curve is generated, usually using Prism Graph-Pad. The dose-response curve is used to calculate an ED50 value (in mg per kg of body weight) for inhibition by the PDE4 inhibitor of the LPS-induced neutrophilia
Alternative method and results: In an alternative embodiment of the procedure, a single oral dose of 10 mg/kg or 1 mg/kg of the PDE4 inhibitor (or vehicle) is administered to the rats, and percent neutrophil inhibition is calculated and reported for that specific dose.

Data set [2] concerns pica feeding response of rats. Kind of data set: In Vivo Assay 2: rat pica model of emesis. The note with it: oral dosing, upper end given as greater than about 50 mg/kg. An excerpt:
In Vivo Assay 2. Rat Pica Model of Emesis
However, a side effect of some PDE4 inhibitors in many species is emesis. Because many rat models of inflammation are well characterized, they have been used in procedures (see e.g. In Vivo Assay 1 above) to show beneficial anti-inflammatory effects of PDE 4 inhibitors. However rats have no emetic response (they have no vomit reflex), so that the relationship between beneficial anti-inflammatory effects of PDE 4 inhibitors and emesis is difficult to study directly in rats.
Pica feeding is a behavioural response to illness in rats wherein rats eat non-nutritive substances such as earth or in particular clay (e.g. kaolin) which may help to absorb toxins. Pica feeding can be induced by motion and chemicals (especially chemicals which are emetic in humans), and can be inhibited pharmacologically with drugs that inhibit emesis in humans. The Rat Pica Model, In Vivo Assay 2, can determine the level of pica response of rats to PDE 4 inhibition at pharmacologically relevant doses in parallel to in vivo anti-inflammatory Assays in (a separate set of) rats (e.g. In Vivo Assay 1 above). Anti-inflammatory and pica assays in the same species together can provide data on the “therapeutic index” (TI) in the rat of the compounds/salts of the invention. The Rat TI can for example be calculated as the ratio of a) the potentially-emetic Pica Response ED50 dose from Assay 2 to b) the rat anti-inflammatory ED50 dose (e.g. measured by rat neutrophilia-inhibition in eg In Vivo Assay 1), with larger TI ratios possibly indicating lower emesis at many anti-inflammatory doses. This might allow a choice of a non-emetic or minimal-emetic pharmaceutical dose of the compounds or salts of the invention which has an anti-inflammatory effect. It is recognised however that achieving a low-emetic PDE4 inhibitory compound is not essential to the invention.
Procedure: On the first day of the experiment, the rats are housed individually in cages without bedding or “enrichment”. The rats are kept off of the cage floor by a wire screen. Pre-weighed food cups containing standard rat chow and clay pellets are placed in the cage. The clay pellets, obtainable from Languna Clay Co, City of Industry, Calif., USA, are the same size and shape as the food pellets. The rats are acclimated to the clay for 72 hours, during which time the cups and food and clay debris from the cage are weighed daily on an electronic balance capable of measuring to the nearest 0.1 grams. By the end of the 72 hour acclimation period the rats generally show no interest in the clay pellets.
At the end of 72 hours the rats are placed in clean cages and the food cups weighed. Rats that are still consuming clay regularly are removed from the study. […] The food and clay cups and cage debris are weighed the following day and the total clay and food consumed that night by each individual animal is calculated.
A dose response is calculated by first converting the data into quantal response, where animals are either positive or negative for the pica response. A rat is “pica positive” if it consumes greater than or equal to 0.3 grams of clay […] using logistic regression performed by the Statistica software statistical package. A Pica Response ED50 value in mg per kg of body weight can then be calculated. […]

Take `CCn1ncc2c(NC3CCOCC3)c(-c3nnc(C)o3)cnc21` [Example 14, 1-Ethyl-5-(5-methyl-1,3,4-oxadiazol-2-yl)-N-(tetrahydro-2H-pyran-4-yl)-1H-pyrazolo[3,4-b]pyridin-4-amine]: the ED50 in data set [1] was 0.03 to 1 mg/kg; in data set [2], 2 to 50 mg/kg.

Regarding `CCn1ncc2c(NC3CCOCC3)c(-c3nnc(C(C)(C)C)o3)cnc21` [Example 17, 5-(S-Tert-butyl-1,3,4-oxadiazol-2-yl)-1-ethyl-N-(tetrahydro-2H-pyran-4-yl)-1H-pyrazolo[3,4-b]pyridin-4-amine], the ED50 in data set [1] fell in the range of 0.03 to 1 mg/kg; in data set [2] it was 2 to 50 mg/kg.

Consider `CCn1ncc2c(NC3CCOCC3)c(-c3nnc(CS(C)(=O)=O)o3)cnc21` [Example 23, 1-Ethyl-5-{5-[(methylsulfonyl)methyl]-1,3,4-oxadiazol-2-yl}-N-(tetrahydro-2H-pyran-4-yl)-1H-pyrazolo[3,4-b]pyridin-4-amine], for which the results for the ED50 in data set [1] and in data set [2] were 0.03 to 1 mg/kg and 2 to 50 mg/kg, respectively.

For `CCn1ncc2c(NC3CCOCC3)c(-c3nnc(CN4CCN(C)CC4)o3)cnc21` [Example 35, 1-Ethyl-5-{5-[(4-methylpiperazin-1-yl)methyl]-1,3,4-oxadiazol-2-yl}-N-(tetrahydro-2H-pyran-4-yl)-1H-pyrazolo[3,4-b]pyridin-4-amine], the values for the ED50 in data set [1] and in data set [2] were 0.03 to 1 mg/kg and 2 to 50 mg/kg, respectively.

Consider `CCn1ncc2c(NC3CCOCC3)c(-c3nnc(C4CCOCC4)o3)cnc21` [Example 38, 1-Ethyl-N-(tetrahydro-2H-pyran-4-yl)-5-[5-(tetrahydro-2H-pyran-4-yl)-1,3,4-oxadiazol-2-yl]-1H-pyrazolo[3,4-b]pyridin-4-amine], for which the ED50 in data set [1] lay within 0.03 to 1 mg/kg; in data set [2], 2 to 50 mg/kg.
